Values after ≈ are worked out from the molar mass of the structure shown.
Conditions: buffer; pH 7.4; 200.0 µM

SMILES	solubility kinetic [µg/mL]
CCOC(=O)CC(=O)CSc1nccc(-c2cccnc2)n1	> 47.6
CCOC(=O)C1CCN(C(=O)c2cc3cc(Cl)ccc3[nH]2)CC1	19 (≈ 56.7 µM)
O=C(/C=C/c1cccs1)N1CCN(c2ccccc2)CC1	1.6 (≈ 5.36 µM)
O=C(Nc1ccccc1)N1CCN(CCc2ccccc2)CC1	41.6 (≈ 134 µM)
Cc1ccc(Nc2nc(C(=O)NCC3CCCO3)cs2)cc1 (stereo not drawn)	9 (≈ 28.4 µM)
C=CCOc1cccc(C2NC(=O)c3ccccc3O2)c1 (stereo not drawn)	3 (≈ 10.7 µM)
Cc1ccc(C)c(NC(=O)C2CCCN(c3cnccn3)C2)c1 (stereo not drawn)	1.7 (≈ 5.48 µM)
CC(O)c1nc2ccccc2n1Cc1ccccc1 (stereo not drawn)	35.6 (≈ 141 µM)
Cc1c(C)c(C)c2[nH]c(=S)[nH]c2c1C	0.4 (≈ 1.94 µM)
Clc1nccc(NCc2ccccc2)n1	> 33
O=c1[nH]c2c(c(=O)[nH]1)CCC2	> 22.8
C=CCNC(=S)N1CCN(S(=O)(=O)c2ccc(C)cc2)CC1	> 50.9
Cc1ccc(NS(=O)(=O)c2cccs2)nc1	> 38.1
CCOn1c(=O)c(-c2cc(OC)ccc2OC)[n+]([O-])c2ccccc21	> 51.4
CCN(CC(=O)NC(=O)NCc1ccccc1)Cc1ccccc1	40.9 (≈ 126 µM)
COc1cc(Br)c(CN2CCCN(C)CC2)cc1OC	44.2 (≈ 129 µM)
Cc1ccc(S(=O)(=O)NCCOc2nc(N(C)C)nc(N(C)C)n2)cc1	52.8 (≈ 139 µM)
O=C(COc1ccccc1Cl)NCCNC(=O)c1ccncc1	> 50.1
N#CCc1nc(C(c2ccccc2)c2ccccc2)no1	33.5 (≈ 122 µM)
CCN(C(=O)CSc1cccc[n+]1[O-])c1ccccc1	> 43.3
CC1CCCN(CC(=O)NC(=O)NC2CCCCC2)C1 (stereo not drawn)	> 42.2
COc1ccc2cc(C(=O)NCc3ccccc3)[nH]c2c1.Cl	1

SMILES	solubility kinetic [µg/mL]
CC1CCc2sc(C(=O)OCC(=O)NC(C)C)cc2C1 (stereo not drawn)	1.2 (≈ 4.06 µM)
O=C(C[n+]1ccccc1)Nc1ccccc1C(F)(F)F.[Cl-]	> 47.5
CCN(C(=O)CSc1nnc(-c2ccc(F)cc2)n1C)C1CCS(=O)(=O)C1 (stereo not drawn)	> 61.9
O=C(CN1C(=O)/C(=C2/SC(=S)N(CCS(=O)(=O)O)C2=O)c2ccccc21)Nc1cccc(Br)c1	14.3 (≈ 24.6 µM)
C[C@@H]1NC(=O)N(c2ccc(F)cc2)C1=O	31.1 (≈ 149 µM)
CCN(CC)CCn1c(NC(=O)c2ccc(C)cc2)nc2ccccc21	25.9 (≈ 73.9 µM)
COc1cccc(N2C(=O)CN(Cc3ccccc3)C2=S)c1	24.9 (≈ 79.7 µM)
Cc1nc2ccc(NC(=S)NC3CCCCC3)cc2nc1C	> 47.2
Cc1nc([N+](=O)[O-])cn1CC(=O)c1ccc(Cl)cc1	3.7 (≈ 13.2 µM)
Cc1ccc(SC(C)C(=O)N2CCN(c3ccccc3)CC2)cc1 (stereo not drawn)	34.9 (≈ 102 µM)
Cc1cc(N)c2ccccc2n1	> 23.7
O=C(COc1ccc(Cl)cc1)NCc1ccc(F)cc1	41.5 (≈ 141 µM)
O=C(O)CNS(=O)(=O)c1c(Cl)cccc1Cl	> 42.6
CNC(=O)c1ccc(CNC(=O)OCc2ccccc2)cc1	> 44.8
Cc1nn(-c2ccc(C(=O)O)cc2)c2c1C(=O)CC(C)(C)C2	> 44.8
O=C1CCCCC1Sc1ccc(Cl)cc1[N+](=O)[O-] (stereo not drawn)	40.6 (≈ 142 µM)
NC(=O)c1cc(S(=O)(=O)N2CCOCC2)cs1	> 41.4
COc1ccccc1NC(=O)Nc1ccccc1C#N	24.8 (≈ 92.8 µM)
NC(=O)C1(C(N)=O)OC1c1ccc(Cl)cc1Cl (stereo not drawn)	> 41.3
O=C(COC(=O)/C=C/c1cccc(F)c1)NC(=O)NCc1ccccc1	2.8 (≈ 7.86 µM)
COc1cc(CN2CCSCC2)c([N+](=O)[O-])cc1OC	35.2 (≈ 118 µM)
Cc1cc(C)c2nc(C)cc(Nc3ccc(C(=O)N(C)C)cc3)c2c1	5.6 (≈ 16.8 µM)

SMILES	solubility kinetic [µg/mL]
Cc1ccccc1CC(=O)N1CCN(S(=O)(=O)c2ccc(Cl)s2)CC1	5.6 (≈ 14 µM)
Cc1cc(C)nc(SCC(=O)Nc2nonc2N)n1	> 42
CN1CCN(NC(=S)NC(C)(C)CC(C)(C)C)CC1	> 43
N/C(=N/O)c1cccn1Cc1ccccc1[N+](=O)[O-]	> 39
CCc1cc(C(=O)NCC2CCCO2)sc1C (stereo not drawn)	> 38
CCOC(=O)c1ccsc1NC(=O)c1ccco1	< 0.6
CCSC1=N/C(=C\c2ccccc2)C(=O)N1c1ccc(OC)cc1	< 0.4
Cn1ccnc1C(=O)c1ccc(S(=O)(=O)N2CCCC2)cc1	> 47.9
CC(=O)/C(C#N)=C1\NC(=O)C(Cc2ccc(F)cc2)S1 (stereo not drawn)	> 43.5
COc1ccccc1-n1c(C)c(C(C)=O)c2cc(O)ccc21	3 (≈ 10.2 µM)
NC1=NC(c2cccnc2)n2c(nc3ccccc32)N1 (stereo not drawn)	> 39.6
Cc1nc(Cl)c(C#N)c2c1CCCC2	17.5 (≈ 84.7 µM)
Cc1ccc(-c2c[n+](=O)c3c(n2[O-])CCC3)cc1	> 36.3
CCOC(=O)c1[nH]c(C)c(C(=O)OC)c1C	> 33.8
CCN(CC)S(=O)(=O)c1ccc(OC)c(NC(=O)CSCc2c(C)noc2C)c1	> 66.2
Cc1cccc(N2C(=O)/C(=C/N3CCN(C(=O)c4ccco4)CC3)C(=O)NC2=S)c1	2.6 (≈ 6.13 µM)
CC(O)CNC12CC3CC(CC(C3)C1)C2 (stereo not drawn)	29.6 (≈ 141 µM)
O=C(NCc1ccccc1Cl)c1ccc2c(c1)OCO2	> 43.5
C=CCOc1cccc(CNc2cccc(C(=O)O)c2)c1	> 42.5
S=C(NCCc1ccc(Cl)cc1)NC1CCCCC1	4 (≈ 13.5 µM)
O=C(O)Cn1cc(C(=O)c2ccccc2F)c2ccccc21	44.5 (≈ 150 µM)
Cc1nc(SC(C(N)=O)c2ccccc2)c(C#N)c(C)c1C (stereo not drawn)	1 (≈ 3.21 µM)

SMILES	solubility kinetic [µg/mL]
CCCc1nc2ccccc2c(C(=O)OCC(=O)NC2CC2)c1CC	> 51.1
COc1cccc(C(C)NC(=O)C2CCCO2)c1 (stereo not drawn)	36.1 (≈ 145 µM)
COCCCNc1nc2ccccc2[nH]c1=O	> 35
Cc1ccc(S(=O)(=O)NCC(=O)Nc2ccc3c(c2)OCO3)cc1	49.4 (≈ 142 µM)
Cn1c(=O)c2c(O)c([N+](=O)[O-])c(=O)n(C)c2n(C)c1=O	> 42.3
CC(C)C(NC(=O)CN1C(=O)c2cccc3cccc1c23)C(C)C	2.1 (≈ 6.47 µM)
COc1ccc(N2CCN(CC(=O)NC(=O)NC(C)(C)C)CC2)cc1	51.3 (≈ 147 µM)
C=CCOc1ccccc1CNCc1ccc(F)cc1.Cl	> 46.2
O=S(=O)(Cc1ccccc1Cl)NCCc1ccc(F)cc1	> 49.2
Cc1nc(SCC(=O)NC2CCCCC2C)nc(C)c1C (stereo not drawn)	> 46.1
CC(C)CN1CCNC(=O)C1CC(=O)N(C)CC1CCOCC1 (stereo not drawn)	45.7 (≈ 140 µM)
CCOc1ccccc1CN1C(=O)NC2(CCCCCC2)C1=O	46.6 (≈ 147 µM)
CSc1nc(C)nc(C2CC2)c1C#N	1.2 (≈ 5.85 µM)
O=C(NCCc1ccccc1)c1ccccc1[N+](=O)[O-]	33.6 (≈ 124 µM)
COC(=O)c1cccc(NC(=O)CC2NCCNC2=O)c1 (stereo not drawn)	39.6 (≈ 136 µM)
COc1ccc(NC(C)=O)c(C)c1	> 26.9
CCC(Oc1ccccc1F)C(=O)NCCN1CCOCC1 (stereo not drawn)	44.3 (≈ 143 µM)
Cc1ccc(C(=O)Nc2ncccc2O)o1	> 32.7
O=C(NC1CCN(c2ncccn2)CC1)c1ccccc1F	39.7 (≈ 132 µM)
Cc1cc(NC(=O)CC2CCCC2)ccc1Br	1.6 (≈ 5.4 µM)
COc1ccc(NC(=O)c2cnc(SC)nc2)cc1	8.4 (≈ 30.5 µM)
Cc1c(C(=O)NC2CCCCC2)oc2ccc(F)cc12	2.8 (≈ 10.2 µM)
